# According to patent US12098148B2, “Therapeutic compounds” (C4X Discovery Limited, priority 2018, dated 2024):
# Read-outs that look alike come from different tables or passages of the source.
# Assays:
# [1] = target: human KEAP1 (N-term, residues 321-609) (Homo sapiens, UniProt Q14145); assay: biochemical;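 note: fluorescence polarization competition assay of Kelch domain binding to NRF2, 12-point 1:3 dilution series from 10 µM, read after 1 h at room temperature, floor 10 nM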
# [2] = test system: NQO1 mRNA in BEAS-2B cells; assay: Beas2B NQO1 mRNA cell based assay; parameters: species or system human; settings: Homo sapiens, 24 h compound treatment, increase in NQO1 mRNA vs vehicle (0.1% DMSO), read-out: EC50
# How it was run: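 BEAS-2B human bronchial epithelial cells exposed to compound for 24 h at 37 °C, 5% CO2. NQO1 mRNA measured by one-step TaqMan RT-qPCR on unpurified lysates, normalized to β-actin; relative expression by ΔΔCT method.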
# human KEAP1 (N-term, residues 321-609), sequence (Q14145 321-609): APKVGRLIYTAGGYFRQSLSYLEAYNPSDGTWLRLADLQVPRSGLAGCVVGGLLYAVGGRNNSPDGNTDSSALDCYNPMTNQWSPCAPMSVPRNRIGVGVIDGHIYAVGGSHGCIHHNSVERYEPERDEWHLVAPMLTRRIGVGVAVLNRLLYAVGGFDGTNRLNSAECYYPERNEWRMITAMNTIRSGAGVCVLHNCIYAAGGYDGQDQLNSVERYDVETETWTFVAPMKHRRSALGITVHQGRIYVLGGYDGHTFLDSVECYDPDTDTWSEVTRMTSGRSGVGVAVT
SMILES,IC50 [1] [nM],"EC50 ([2]; BEAS-2B, 24 h) [nM]",EC50 [2] [nM]
"O=C(O)[C@H]1CCCC[C@H]1C(=O)N1CCc2c(Cl)ccc(OCc3nsc4ccccc34)c2[C@H]1CN1CCCC1=O [Example 68, (1S,2R)-2-((S)-8-(Benzo[d]isothiazol-3-ylmethoxy)-5-chloro-1-((2-oxopyrrolidin-1-yl)methyl)-1,2,3,4-tetrahydroisoquinoline-2-carbonyl)cyclohexane-1-carboxylic acid]",8.4,32,–
"O=C(O)[C@H]1CCCC[C@H]1C(=O)N1CCc2c(Cl)ccc(OCc3ccccn3)c2[C@H]1CN1CCCC1=O [Example 69, (1S,2R)-2-((S)-5-chloro-1-((2-oxopyrrolidin-1-yl)methyl)-8-(pyridin-2-ylmethoxy)-1,2,3,4-tetrahydroisoquinoline-2-carbonyl) cyclohexane-1-carboxylic acid]",6.9,140,–
"Cc1cc(COc2ccc(Cl)c3c2[C@@H](CN2CCCC2=O)N(C(=O)[C@@H]2CCCC[C@@H]2C(=O)O)CC3)ns1 [Example 70, (1S,2R)-2-((S)-5-Chloro-8-((5-methylisothiazol-3-yl)methoxy)-1-((2-oxopyrrolidin-1-yl)methyl)-1,2,3,4-tetrahydroisoquinoline-2-carbonyl) cyclohexane-1-carboxylic acid]",5.9,55,–
"O=C(O)[C@H]1CCCC[C@H]1C(=O)N1CCc2c(Cl)ccc(OCc3ccsn3)c2[C@H]1CN1CCCC1=O [Example 71, (1S,2R)-2-((S)-5-Chloro-8-isothiazol-3-ylmethoxy)-1-((2-oxopyrrolidin-1-ylmethyl)-1,2,3,4-tetrahydroisoquinoline-2-carbonyl) cyclohexane-1-carboxylic acid]",6.5,78,–
"CC(C)n1cc(COc2ccc(Br)c3c2[C@@H](CN2C[C@H](C)CC2=O)N(C(=O)[C@@H]2CCCC[C@@H]2C(=O)O)CC3)nn1 [Example 75, (1S,2R)-2-((S)-5-Bromo-8-((1-isopropyl-1H-1,2,3-triazol-4-yl)methoxy)-1-(((R)-4-methyl-2-oxopyrrolidin-1-yl)methyl)-1,2,3,4-tetrahydroisoquinoline-2-carbonyl) cyclohexane-1-carboxylic acid]",6.5,8.3,–
"CC(C)n1cc(COc2ccc(Br)c3c2[C@@H](CN2CC4(CC4)CC2=O)N(C(=O)[C@@H]2CCCC[C@@H]2C(=O)O)CC3)nn1 [Example 76, (1S,2R)-2-((S)-5-bromo-8-((1-isopropyl-1H-1,2,3-triazol-4-yl)methoxy)-1-((6-oxo-5-azaspiro[2.4]heptan-5-yl)methyl)-1,2,3,4-tetrahydroisoquinoline-2-carbonyl) cyclohexane-1-carboxylic acid]",6.7,2.5,–
"CC(C)n1cc(COc2ccc(Br)c3c2[C@@H](CN2C[C@@H](C)CC2=O)N(C(=O)[C@@H]2CCCC[C@@H]2C(=O)O)CC3)nn1 [Example 77, (1S,2R)-2-((S)-5-Bromo-8-((1-isopropyl-1H-1,2,3-triazol-4-yl)methoxy)-1-(((S)-4-methyl-2-oxopyrrolidin-1-yl)methyl)-1,2,3,4-tetrahydroisoquinoline-2-carbonyl) cyclohexane-1-carboxylic acid]",7.8,6.7,–
"O=C(O)[C@H]1CCCC[C@H]1C(=O)N1CCc2c(Cl)ccc(OCc3cccnc3)c2[C@H]1CN1CCCC1=O [Example 78, (1S,2R)-2-((S)-5-Chloro-1-((2-oxopyrrolidin-1-yl)methyl)-8-(pyridin-3-ylmethoxy)-1,2,3,4-tetrahydroisoquinoline-2-carbonyl) cyclohexane-1-carboxylic acid]",7.8,57,–
"CCn1nnc(COc2ccc(Cl)c3c2[C@@H](CN2CCCC2=O)N(C(=O)[C@@H]2CCCC[C@@H]2C(=O)O)CC3)c1C(F)F [Example 79, (1S,2R)-2-((S)-5-Chloro-8-((5-(difluoromethyl)-1-ethyl-1H-1,2,3-triazol-4-yl)methoxy)-1-((2-oxopyrrolidin-1-yl)methyl)-1,2,3,4-tetrahydroisoquinoline-2-carbonyl)cyclohexane-1-carboxylic acid]",6.7,1.2,–
"C[C@H](CC(=O)O)C(=O)N1CCc2c(Cl)ccc(OCc3noc4ccccc34)c2[C@H]1CN1CCCC1=O [Example 80, (R)-4-((S)-8-(Benzo[d]isoxazol-3-ylmethoxy)-5-chloro-1-((2-oxopyrrolidin-1-yl)methyl)-3,4-dihydroisoquinolin-2(1H)-yl)-3-methyl-4-oxobutanoic acid]",4.8,110,–
"Cn1nnc(COc2ccc(Cl)c3c2[C@@H](CN2CCCC2=O)N(C(=O)[C@@H]2CCCC[C@@H]2C(=O)O)CC3)c1C(F)F [Example 82, (1S,2R)-2-((S)-5-Chloro-8-((5-(difluoromethyl)-1-methyl-1H-1,2,3-triazol-4-yl)methoxy)-1-((2-oxopyrrolidin-1-yl)methyl)-1,2,3,4-tetrahydroisoquinoline-2-carbonyl) cyclohexane-1-carboxylic acid]",7.7,1.3,–
"CC(C)c1nc(COc2ccc(Cl)c3c2[C@@H](CN2CCCC2=O)N(C(=O)[C@@H]2CCCC[C@@H]2C(=O)O)CC3)no1 [Example 83, (1S,2R)-2-((S)-5-Chloro-8-((5-isopropyl-1,2,4-oxadiazol-3-yl)methoxy)-1-((2-oxopyrrolidin-1-yl)methyl)-1,2,3,4-tetrahydroisoquinoline-2-carbonyl) cyclohexane-1-carboxylic acid]",7.8,35,–
"Cc1cnn(C[C@@H]2c3c(OCc4nnn(C)c4C(F)F)ccc(Cl)c3CCN2C(=O)[C@@H]2CCCC[C@@H]2C(=O)O)c1 [Example 84, (1S,2R)-2-((S)-5-chloro-8-((5-(difluoromethyl)-1-methyl-1H-1,2,3-triazol-4-yl)methoxy)-1-((4-methyl-1H-pyrazol-1-yl)methyl)-1,2,3,4-tetrahydroisoquinoline-2-carbonyl)cyclohexane-1-carboxylic acid]",6.1,–,36
O=C(O)[C@H]1CCCC[C@H]1C(=O)N1CCc2c(Cl)ccc(OCc3cncnc3)c2[C@H]1CN1CCCC1=O [Example 85],9.9,34,–
"Cn1nnc(COc2ccc(Cl)c3c2[C@@H](CN2CCCC2=O)N(C(=O)[C@@H]2CCC[C@@H]2C(=O)O)CC3)c1C(F)F [Example 86, (1S,2R)-2-((S)-5-Chloro-8-((5-(difluoromethyl)-1-methyl-1H-1,2,3-triazol-4-yl)methoxy)-1-((2-oxopyrrolidin-1-yl)methyl)-1,2,3,4-tetrahydroisoquinoline-2-carbonyl)cyclopentane-1-carboxylic acid]",5,8.3,–
"Cn1nnc(COc2ccc(Cl)c3c2[C@@H](CN2CCCC2=O)N(C(=O)[C@H]2CCC[C@H]2C(=O)O)CC3)c1C(F)F [Example 87, (1R,2S)-2-((S)-5-Chloro-8-((5-(difluoromethyl)-1-methyl-1H-1,2,3-triazol-4-yl)methoxy)-1-((2-oxopyrrolidin-1-yl)methyl)-1,2,3,4-tetrahydroisoquinoline-2-carbonyl)cyclopentane-1-carboxylic acid]",150,300,–
"O=C(O)[C@H]1CCCC[C@H]1C(=O)N1CCc2c(Cl)ccc(OCc3cccnn3)c2[C@H]1CN1CCCC1=O [Example 88, (1S,2R)-2-((S)-5-Chloro-1-((2-oxopyrrolidin-1-yl)methyl)-8-(pyridazin-3-ylmethoxy)-1,2,3,4-tetrahydroisoquinoline-2-carbonyl) cyclohexane-1-carboxylic acid]",11,78,–
"Cn1cnc2cc(COc3ccc(Cl)c4c3[C@@H](CN3CCCC3=O)N(C(=O)[C@@H]3CCCC[C@@H]3C(=O)O)CC4)cnc21 [Example 89, (1S,2R)-2-((S)-5-Chloro-8-((3-methyl-3H-imidazo[4,5-b]pyridin-6-yl)methoxy)-1-((2-oxopyrrolidin-1-yl)methyl)-1,2,3,4-tetrahydroisoquinoline-2-carbonyl) cyclohexane-1-carboxylic acid]",8.2,5.1,–
"Cn1nnc2cc(COc3ccc(Cl)c4c3[C@@H](CN3CCCC3=O)N(C(=O)[C@@H]3CCCC[C@@H]3C(=O)O)CC4)ccc21 [Example 90, (1S,2R)-2-((S)-5-Chloro-8-((1-methyl-1H-benzo [d][1,2,3]triazol-5-yl)methoxy)-1-((2-oxopyrrolidin-1-yl)methyl)-1,2,3,4-tetrahydroisoquinoline-2-carbonyl)cyclohexane-1-carboxylic acid]",9.1,8.1,–
"Cn1nnc(COc2ccc(Cl)c3c2[C@@H](CN2CCCC2=O)N(C(=O)[C@@H]2CCCC[C@]2(C)C(=O)O)CC3)c1C(F)F [Example 91, (1S,2R)-2-((S)-5-Chloro-8-((5-(difluoromethyl)-1-methyl-1H-1,2,3-triazol-4-yl)methoxy)-1-((2-oxopyrrolidin-1-yl)methyl)-1,2,3,4-tetrahydroisoquinoline-2-carbonyl)-1-methylcyclohexane-1-carboxylic acid]",6.1,0.21,–
"O=C(O)[C@H]1CCCC[C@H]1C(=O)N1CCc2c(Cl)ccc(OCc3cn4cccnc4n3)c2[C@H]1CN1CCCC1=O [Example 92, (1S,2R)-2-((S)-5-Chloro-8-(imidazo[1,2-a]pyrimidin-2-ylmethoxy)-1-((2-oxopyrrolidin-1-yl)methyl)-1,2,3,4-tetrahydroisoquinoline-2-carbonyl) cyclohexane-1-carboxylic acid]",15,180,–
"O=C(O)[C@H]1CCCC[C@H]1C(=O)N1CCc2c(Cl)ccc(OCc3noc4ncccc34)c2[C@H]1CN1CCCC1=O [Example 93, (1S,2R)-2-((S)-5-Chloro-8-(isoxazolo[5,4-b]pyridin-3-ylmethoxy)-1-((2-oxopyrrolidin-1-yl)methyl)-1,2,3,4-tetrahydroisoquinoline-2-carbonyl) cyclohexane-1-carboxylic acid]",7.2,15,–
